Where two headings read alike, the source gives them in different places.
Assays:
[1] = tested on: murine spleen cells, Con A induced (T-cells); test: Con A induced lymphocyte proliferation in mouse spleen cells in vitro; assay type: cell-based, mouse (Balb/C); conditions: for activity at 0.01 µg/mL / activity at 0.1 µg/mL / activity at 1 µg/mL / activity at 2.5 µg/mL / activity at 5 µg/mL / activity at 25 µg/mL / activity at 50 µg/mL: Mus musculus
Text: (1) Mitogen-(Lipopolysaccharide, LPS or Con A) induced lymphocyte proliferation using murine spleen cells (in vitro)
1. […] LPS is a mitogen which acts preferentially on B-cells. […] Con A is considered a T-cell mitogen.
1. Balb/C male mice, 7-8 weeks old, are used up to 20-24 weeks of age.
2. The animals are sacrificed by cervical dislocation and the animals' left sides swabbed with 70% ethanol. An incision is made between the lower ribs and pelvis, laterally from front to back, and the skin retracted. Aseptic technique is to be observed from this point on.
3. The spleen is gently removed with sterile forceps. […] When all spleens have been collected and cleaned they are placed in a second petri dish containing 3 ml cold RPMI.
4. Spleen cell suspensions are prepared by gentle mincing of the tissue with a sterile blade and filtering through #100 stainless steel mesh.
6. An aliquot of the above suspension is prepared for cell counting as follows: 0.1 ml of suspension is diluted to 1.0 ml with 3% acetic acid and let stand at room temperature for at least five minutes. The sample is then diluted 1:100 with "Isoton II" (Curtis-Matheson Co.) and counted in a coulter counter.
MURINE SPLENOCYTE STIMULATION WITH CONCANAVALIN A (CON A), LIPOPOLYSACCHARIDE (LPS), AND ALLOGENEIC SPLENOCYTES (LMC).
There is set forth below the standard procedure which should be modified according to the solubility and other properties of the particular compound tested.
Add ~10 ml RPMI to 1.79 g HEPES and vortex until completely dissolved. […] Allow to warm temperature before use.
5. Con A (Calbiochem)--100 mg/ml NaCl injection solution (McGaw), filter, aliquot in 1 ml, and store at -70° C.
8. Tritiated thymidine (^3 H-TdR, Schwartz-Mann, 6 Ci/mM). Remove a slightly larger volume of ^3 H-TdR than needed from vial with a 1 cc syringe and place volume in the cap of a small sterile plastic tube. […] Vortex thoroughly before adding to plates.
1. Animals are sacrificed by cervical dislocation killing one from each group and processing the cells individually before killing the next animal. Swab each animal with 70% ethanol before surgery. […] Use 8 vertical strokes (or enough to break up all tissue) with Teflon-tipped homogenizer. Filter each sample through a 100 mesh screen into a 50 ml tube. […] After all samples have been spun, vortex each briefly and let sit for 1 hour. Vortex each sample ~5 seconds, waiting ~10 seconds between each sample. Let sit 5 minutes, then pipet cell suspension into 5 ml (12×75 mm) tube being careful not to remove any sediment. Remove 50 ul cell suspension using micropipetter, carefully wipe pipet tip with kimwipe and pipet into 20 ml Isoton in Coulter counter vial, rinsing pipet several times in the Isoton. Add 6 drops of CyMet and swirl vial to mix. Use the following Coulter counter settings: Amplification-1, Threshold-10, and Aperture Current-1. Clean counter with Isoterge the morning of experiment and count background before standardizing with CH 0.60 Hematology Controls. After cell counts are obtained, dilute to 6×10^6 cells/ml with supplemented RPMI and aliquot into 3 tubes for the 3 assays.
1. Pipet 100 μl control media (supplemented RPMI) or appropriate dilution of mitogen (starting with lowest concentration) into microtiter plate using Titertek multi-channel pipetter. Place plates in 37° C. CO2 incubator with CO2 set at 0.5 after each plate has been pipetted. Pipet 100 μl responder cells into wells starting with most dilute mitogen concentration. Place plates in incubator as they are filled and after all plates are in incubator, let sit for 10-20 minutes. Wrap plates with plastic wrap, recover with top, replace in incubator, and reset CO2 to ~0.05. Save ~50 ml supplemented RPMI at 4° C. for thymidine dilution. After ~44 hours warm the RPMI to 37° C. in incubator. Dilute tritiated Thymidine 1:100 in warmed RPMI. Use Titertek to add 50 μl Thymidine to each well. Treat plates as above and incubate overnight (~18 hours).

macrophages = test: lymphokine (macrophage mitogenic factor, MMF) induced macrophage proliferation in vitro; assay type: cell-based
Text: (2) Lymphokine (macrophage mitogenic factor, MMF) induced macrophage proliferation (in vitro
2. NPT 16416 is also capable of augmenting the lymphokine (MMF) induced proliferation of macrophages causing a 70% enhancement of macrophage proliferation.

`Oc1ncnc2c1nc1n2CCS1` [NPT 16416, 3-hydroxy-7,8-dihydrothiazolo-[3,2e]-purine] was tested. Which activity at 0.01 µg/mL ([1]; T-cell, drug 10 ng/ml, Con A 1000 ng/ml, drug/control, read-out: Hi Mitogen D/C Con A) did it give?
Its activity at 0.01 µg/mL is 104%.

What about the activity at 0.1 µg/mL ([1]; T-cell, drug 100 ng/ml, Con A 1000 ng/ml, drug/control, read-out: Hi Mitogen D/C Con A) of the same compound?
Its activity at 0.1 µg/mL is 102%.

What about the activity at 1 µg/mL ([1]; T-cell, drug 1,000 ng/ml, Con A 1000 ng/ml, drug/control, read-out: Hi Mitogen D/C Con A) of the same compound?
The activity at 1 µg/mL was 103%.

And the activity at 2.5 µg/mL ([1]; T-cell, drug 2,500 ng/ml, Con A 1000 ng/ml, drug/control, read-out: Hi Mitogen D/C Con A)?
The activity at 2.5 µg/mL was 91%.

And the activity at 5 µg/mL ([1]; T-cell, drug 5,000 ng/ml, Con A 1000 ng/ml, drug/control, read-out: Hi Mitogen D/C Con A)?
The activity at 5 µg/mL was 101%.

What about the activity at 25 µg/mL ([1]; T-cell, drug 25,000 ng/ml, Con A 1000 ng/ml, drug/control, read-out: Hi Mitogen D/C Con A) of the same compound?
The activity at 25 µg/mL was 100%.

What about the activity at 50 µg/mL ([1]; T-cell, drug 50,000 ng/ml, Con A 1000 ng/ml, drug/control, read-out: Hi Mitogen D/C Con A) of the same compound?
The activity at 50 µg/mL was 99%.

And the activity at 0.01 µg/mL ([1]; read-out: Lo Mitogen D/C Con A)?
Its activity at 0.01 µg/mL is 85%.

And the activity at 0.1 µg/mL ([1]; drug 100 ng/ml, Con A 375 ng/ml, drug/control, read-out: Lo Mitogen D/C Con A)?
Its activity at 0.1 µg/mL is 105%.

And the activity at 1 µg/mL ([1]; drug 1,000 ng/ml, Con A 375 ng/ml, drug/control, read-out: Lo Mitogen D/C Con A)?
The activity at 1 µg/mL was 93%.

What about the activity at 1 µg/mL ([1]; drug 1,000 ng/ml, Con A .375 μg/ml, read-out: Con A D/C (maximum values)) of the same compound?
The activity at 1 µg/mL was 118%.

What about the activity at 2.5 µg/mL ([1]; drug 2,500 ng/ml, Con A 375 ng/ml, drug/control, read-out: Lo Mitogen D/C Con A) of the same compound?
Its activity at 2.5 µg/mL is 98%.

What about the activity at 5 µg/mL ([1]; drug 5,000 ng/ml, Con A 375 ng/ml, drug/control, read-out: Lo Mitogen D/C Con A) of the same compound?
The activity at 5 µg/mL was 110%.

What about the activity at 25 µg/mL ([1]; drug 25,000 ng/ml, Con A 375 ng/ml, drug/control, read-out: Lo Mitogen D/C Con A) of the same compound?
The activity at 25 µg/mL was 113%.

What about the activity at 25 µg/mL ([1]; drug 25,000 ng/ml, Con A .375 μg/ml, read-out: Con A D/C (maximum values)) of the same compound?
The activity at 25 µg/mL was 118%.

And the activity at 50 µg/mL ([1]; drug 50,000 ng/ml, Con A 375 ng/ml, drug/control, read-out: Lo Mitogen D/C Con A)?
Its activity at 50 µg/mL is 103%.

And the “CPM Incorp. + Con A” value ([1]; drug 10 ng/ml, Con A 375 ng/ml)?
The value was 17.3 CPM × 10^3.

What about the “CPM Incorp. + Con A” value ([1]; drug 10 ng/ml, Con A 1000 ng/ml) of the same compound?
Its value is 61.8 CPM × 10^3.

What about the “CPM Incorp. + Con A” value ([1]; drug 100 ng/ml, Con A 375 ng/ml) of the same compound?
Its value is 20.6 CPM × 10^3.

And the “CPM Incorp. + Con A” value ([1]; drug 100 ng/ml, Con A 1000 ng/ml)?
The value was 60.8 CPM × 10^3.

What about the “CPM Incorp. + Con A” value ([1]; drug 1,000 ng/ml, Con A 375 ng/ml) of the same compound?
The value was 18.0 CPM × 10^3.

What about the “CPM Incorp. + Con A” value ([1]; drug 1,000 ng/ml, Con A 1000 ng/ml) of the same compound?
Its value is 60.8 CPM × 10^3.

And the “CPM Incorp. + Con A” value ([1]; drug 2,500 ng/ml, Con A 375 ng/ml)?
The value was 19.1 CPM × 10^3.

And the “CPM Incorp. + Con A” value ([1]; drug 2,500 ng/ml, Con A 1000 ng/ml)?
The value was 54.0 CPM × 10^3.

And the “CPM Incorp. + Con A” value ([1]; drug 5,000 ng/ml, Con A 375 ng/ml)?
Its value is 21.5 CPM × 10^3.

What about the “CPM Incorp. + Con A” value ([1]; drug 5,000 ng/ml, Con A 1000 ng/ml) of the same compound?
The value was 59.7 CPM × 10^3.

And the “CPM Incorp. + Con A” value ([1]; drug 25,000 ng/ml, Con A 375 ng/ml)?
The value was 22.1 CPM × 10^3.

What about the “CPM Incorp. + Con A” value ([1]; drug 25,000 ng/ml, Con A 1000 ng/ml) of the same compound?
Its value is 59.0 CPM × 10^3.

What about the “CPM Incorp. + Con A” value ([1]; drug 50,000 ng/ml, Con A 375 ng/ml) of the same compound?
Its value is 20.2 CPM × 10^3.

And the “CPM Incorp. + Con A” value ([1]; drug 50,000 ng/ml, Con A 1000 ng/ml)?
The value was 58.6 CPM × 10^3.

What about the “effect on Con A induced proliferation (T-cell response), in words” value ([1]; in vitro) of the same compound?
Its value is “little or no effect”.

And the “enhancement of lymphokine (MMF) induced macrophage proliferation” value (macrophages)?
The value was 70%.
